{"source": "paper PMC9838390", "about": "“Discovery and biosynthesis of karnamicins as angiotensin converting enzyme inhibitors” (Nature Communications, 2023)", "key": {"[1]": {"tested_on": "KnmB2", "assay": "Hydrogen peroxide formation assay of KnmB2 and variants", "type": "biochemical, L. rhizosphaerae NEAU-A2", "protocol": "Hydrogen peroxide formation assay and NADPH oxidation\nThe hydrogen peroxide formed from KnmB1, KnmB2 and their variants were measured using the Hydrogen Peroxide Assay Kit (Beyotime Industrial Co. Ltd, Shanghai, China)4-5. 5–100 µL of enzyme reaction mixture was added to 100 µL of working reagent (S0038-1). The mixture was incubated for 30 min at 25 °C, at which time the absorbance at 560 nm was measured by NanoDrop 2000c (Fisher Scientific). […]\n(§1) Spectral data for new compounds […]\nSupplementary Figure 131. H2O2 generation and NADPH oxidation for KnmB2, KnmB1 and their variants. (a) Hydrogen peroxide formation of KnmB2 and variants. […]\n(1 picture or pasted object on this page, not shown here) […]\nH2O2 generation for KnmB2 and variants in the presence 24 or 32. Reaction conditions (h-j) for KnmB2 and their variants: 50 mM Tris-HCl buffer (pH 7.5), 0.15 mM NADPH, 2 μM KnmB2 or variants, or 0.1 mM substrate 24/32. Values are the means ± SD of n = 3 independent experiments, except for KnmB2+24 (T = 40 min), KnmB2-N219D+24 (T = 4 min), KnmB2-Y215F+24 (T= 1 min and 3 min) in i and j, and KnmB2+32 (T= 8 min) in j (n = 2). Source data are provided as a Source Data file. […]"}, "[2]": {"tested_on": "KnmB1", "assay": "NADPH oxidation of KnmB1 and variants (340 nm)", "type": "biochemical, L. rhizosphaerae NEAU-A2", "protocol": "Hydrogen peroxide formation assay and NADPH oxidation […]\nNADPH detection was carried out in the cuvette by NanoDrop 2000c (Fisher Scientific). NADPH signal at 340 nm was monitored in time using 6220 M–1 cm–1 as […]\nas §1\nReaction conditions: 50 mM Tris-HCl buffer (pH 7.5), 0.15 mM NADPH, and 2 μM KnmB1 or KnmB2. (e) NADPH oxidation of KnmB1 and variants. (f) NADPH oxidation of KnmB1 in the presence 24/32/36. (g) NADPH oxidation of KnmB1 and variants in the presence 24. Reaction conditions (e-g) for KnmB1 and their variants: 50 mM Tris-HCl buffer (pH 7.5), 0.15 mM NADPH, and 6 μM KnmB1 or variants, or 0.1 mM substrate 24/32/36. […]\n2 μM KnmB2 or variants, or 0.1 mM substrate 24/32. […]\nSource data are provided as a Source Data file. […]"}}, "note": "Several values for one entry are separate records, joined by “and”; a condition that tells them apart may be missing. Equal values may be shown once."}
{"smiles": "CC(C)CCCCc1nc(-c2cc(O)cc(C(N)=O)n2)cs1", "note": "[Compound 24]", "values": [{"measurement": "hydrogen peroxide formation of KnmB2 (absorbance UV λ=560 nm), average value", "setting": "[1]; Fig. S131a, 1 mM NADPH, 16 μM KnmB2, 0.1 mM compound, 30 °C, 3 h, average of 3", "result": 0.5988}, {"measurement": "H2O2 generation, average value", "setting": "[1]; KnmB2+24, Time 0", "result": 0.0000, "unit": "µM"}, {"measurement": "H2O2 generation, average value", "setting": "[1]; KnmB2+24, Time 1", "result": 7.6218, "unit": "µM"}, {"measurement": "H2O2 generation, average value", "setting": "[1]; KnmB2+24, Time 2", "result": 12.4635, "unit": "µM"}, {"measurement": "H2O2 generation, average value", "setting": "[1]; KnmB2+24, Time 3", "result": 16.9204, "unit": "µM"}, {"measurement": "H2O2 generation, average value", "setting": "[1]; KnmB2+24, Time 4", "result": 22.1791, "unit": "µM"}, {"measurement": "H2O2 generation, average value", "setting": "[1]; KnmB2+24, Time 5", "result": 26.8239, "unit": "µM"}, {"measurement": "H2O2 generation, average value", "setting": "[1]; KnmB2+24, Time 8", "result": 38.8438, "unit": "µM"}, {"measurement": "H2O2 generation, average value", "setting": "[1]; KnmB2+24, Time 10", "result": 44.6588, "unit": "µM"}, {"measurement": "H2O2 generation, average value", "setting": "[1]; KnmB2+24, Time 15", "result": 53.6376, "unit": "µM"}, {"measurement": "H2O2 generation, average value", "setting": "[1]; KnmB2+24, Time 20", "result": 56.0339, "unit": "µM"}, {"measurement": "H2O2 generation, average value", "setting": "[1]; KnmB2+24, Time 30", "result": 65.5374, "unit": "µM"}, {"measurement": "H2O2 generation, average value", "setting": "[1]; KnmB2+24, Time 40", "result": 57.4770, "unit": "µM"}, {"measurement": "H2O2 generation, average value", "setting": "[1]; KnmB2+24, Time 60", "result": 60.9452, "unit": "µM"}, {"measurement": "H2O2 generation, average value", "setting": "[1]; KnmB2-N219D+24, Time 0", "result": 0.0000, "unit": "µM"}, {"measurement": "H2O2 generation, average value", "setting": "[1]; KnmB2-N219D+24, Time 2", "result": 1.0964, "unit": "µM"}, {"measurement": "H2O2 generation, average value", "setting": "[1]; KnmB2-N219D+24, Time 4", "result": 1.8460, "unit": "µM"}, {"measurement": "H2O2 generation, average value", "setting": "[1]; KnmB2-N219D+24, Time 5", "result": 1.9569, "unit": "µM"}, {"measurement": "H2O2 generation, average value", "setting": "[1]; KnmB2-N219D+24, Time 8", "result": 2.8926, "unit": "µM"}, {"measurement": "H2O2 generation, average value", "setting": "[1]; KnmB2-N219D+24, Time 10", "result": 3.8614, "unit": "µM"}, {"measurement": "H2O2 generation, average value", "setting": "[1]; KnmB2-N219D+24, Time 15", "result": 5.8462, "unit": "µM"}, {"measurement": "H2O2 generation, average value", "setting": "[1]; KnmB2-N219D+24, Time 20", "result": 7.3014, "unit": "µM"}, {"measurement": "H2O2 generation, average value", "setting": "[1]; KnmB2-N219D+24, Time 30", "result": 11.0201, "unit": "µM"}, {"measurement": "H2O2 generation, average value", "setting": "[1]; KnmB2-N219D+24, Time 40", "result": 14.2037, "unit": "µM"}, {"measurement": "H2O2 generation, average value", "setting": "[1]; KnmB2-N219D+24, Time 60", "result": 17.9462, "unit": "µM"}, {"measurement": "H2O2 generation, average value", "setting": "[1]; KnmB2-Y215F+24, Time 0", "result": 0.0000, "unit": "µM"}, {"measurement": "H2O2 generation, average value", "setting": "[1]; KnmB2-Y215F+24, Time 1", "result": 2.6203, "unit": "µM"}, {"measurement": "H2O2 generation, average value", "setting": "[1]; KnmB2-Y215F+24, Time 2", "result": 4.3765, "unit": "µM"}, {"measurement": "H2O2 generation, average value", "setting": "[1]; KnmB2-Y215F+24, Time 3", "result": 4.8322, "unit": "µM"}, {"measurement": "H2O2 generation, average value", "setting": "[1]; KnmB2-Y215F+24, Time 4", "result": 7.3420, "unit": "µM"}, {"measurement": "H2O2 generation, average value", "setting": "[1]; KnmB2-Y215F+24, Time 5", "result": 8.5825, "unit": "µM"}, {"measurement": "H2O2 generation, average value", "setting": "[1]; KnmB2-Y215F+24, Time 8", "result": 12.4110, "unit": "µM"}, {"measurement": "H2O2 generation, average value", "setting": "[1]; KnmB2-Y215F+24, Time 10", "result": 14.9169, "unit": "µM"}, {"measurement": "H2O2 generation, average value", "setting": "[1]; KnmB2-Y215F+24, Time 15", "result": 20.6983, "unit": "µM"}, {"measurement": "H2O2 generation, average value", "setting": "[1]; KnmB2-Y215F+24, Time 20", "result": 27.2428, "unit": "µM"}, {"measurement": "H2O2 generation, average value", "setting": "[1]; KnmB2-Y215F+24, Time 30", "result": 36.5225, "unit": "µM"}, {"measurement": "H2O2 generation, average value", "setting": "[1]; KnmB2-Y215F+24, Time 40", "result": 40.7285, "unit": "µM"}, {"measurement": "H2O2 generation, average value", "setting": "[1]; KnmB2-Y215F+24, Time 60", "result": 52.7400, "unit": "µM"}, {"measurement": "effector action on reduction of flavin in KnmB1 by NADPH", "setting": "[2]; 0.15 mM NADPH, 6 μM KnmB1, 0.1 mM compound (Fig. S131f)", "result": "could act as a non-substrate effector"}, {"measurement": "NADPH oxidation of KnmB1 in the presence of compound (replicates 1, 2, 3)", "setting": "[2]; Time 0", "result": 0.0000, "unit": "µM"}, {"measurement": "NADPH oxidation of KnmB1 in the presence of compound, average value", "setting": "[2]; Time 0", "result": 0.0000, "unit": "µM"}, {"measurement": "NADPH oxidation of KnmB1 in the presence of compound (replicates 1, 2, 3)", "setting": "[2]; Time 1", "result": "2.9582 µM and 2.2830 µM and 2.5080 µM"}, {"measurement": "NADPH oxidation of KnmB1 in the presence of compound, average value", "setting": "[2]; Time 1", "result": 2.5831, "unit": "µM"}, {"measurement": "NADPH oxidation of KnmB1 in the presence of compound (replicates 1, 2, 3)", "setting": "[2]; Time 2", "result": "6.8489 µM and 4.6945 µM and 5.9164 µM"}, {"measurement": "NADPH oxidation of KnmB1 in the presence of compound, average value", "setting": "[2]; Time 2", "result": 5.8199, "unit": "µM"}, {"measurement": "NADPH oxidation of KnmB1 in the presence of compound (replicates 1, 2, 3)", "setting": "[2]; Time 3", "result": "8.2797 µM and 6.4309 µM and 6.4630 µM"}, {"measurement": "NADPH oxidation of KnmB1 in the presence of compound, average value", "setting": "[2]; Time 3", "result": 7.0579, "unit": "µM"}, {"measurement": "NADPH oxidation of KnmB1 in the presence of compound (replicates 1, 2, 3)", "setting": "[2]; Time 4", "result": "9.7106 µM and 8.7942 µM and 8.6174 µM"}, {"measurement": "NADPH oxidation of KnmB1 in the presence of compound, average value", "setting": "[2]; Time 4", "result": 9.0407, "unit": "µM"}, {"measurement": "NADPH oxidation of KnmB1 in the presence of compound (replicates 1, 2, 3)", "setting": "[2]; Time 5", "result": "11.9293 µM and 10.4662 µM and 10.1447 µM"}, {"measurement": "NADPH oxidation of KnmB1 in the presence of compound, average value", "setting": "[2]; Time 5", "result": 10.8467, "unit": "µM"}, {"measurement": "NADPH oxidation of KnmB1 in the presence of compound (replicates 1, 2, 3)", "setting": "[2]; Time 8", "result": "16.3826 µM and 16.8650 µM and 14.9839 µM"}, {"measurement": "NADPH oxidation of KnmB1 in the presence of compound, average value", "setting": "[2]; Time 8", "result": 16.0772, "unit": "µM"}, {"measurement": "NADPH oxidation of KnmB1 in the presence of compound (replicates 1, 2, 3)", "setting": "[2]; Time 10", "result": "19.9679 µM and 20.5788 µM and 17.6688 µM"}, {"measurement": "NADPH oxidation of KnmB1 in the presence of compound, average value", "setting": "[2]; Time 10", "result": 19.4051, "unit": "µM"}, {"measurement": "NADPH oxidation of KnmB1 in the presence of compound (replicates 1, 2, 3)", "setting": "[2]; Time 15", "result": "26.9614 µM and 30.3537 µM and 23.0064 µM"}, {"measurement": "NADPH oxidation of KnmB1 in the presence of compound, average value", "setting": "[2]; Time 15", "result": 26.7739, "unit": "µM"}, {"measurement": "NADPH oxidation of KnmB1 in the presence of compound (replicates 1, 2, 3)", "setting": "[2]; Time 20", "result": "35.3859 µM and 38.9550 µM and 30.1286 µM"}, {"measurement": "NADPH oxidation of KnmB1 in the presence of compound, average value", "setting": "[2]; Time 20", "result": 34.8232, "unit": "µM"}, {"measurement": "NADPH oxidation of KnmB1 in the presence of compound (replicates 1, 2, 3)", "setting": "[2]; Time 30", "result": "48.2476 µM and 54.0515 µM and 41.3344 µM"}, {"measurement": "NADPH oxidation of KnmB1 in the presence of compound, average value", "setting": "[2]; Time 30", "result": 47.8778, "unit": "µM"}, {"measurement": "NADPH oxidation of KnmB1 in the presence of compound (replicates 1, 2, 3)", "setting": "[2]; Time 40", "result": "59.6785 µM and 66.9936 µM and 50.7878 µM"}, {"measurement": "NADPH oxidation of KnmB1 in the presence of compound, average value", "setting": "[2]; Time 40", "result": 59.1533, "unit": "µM"}, {"measurement": "NADPH oxidation of KnmB1 in the presence of compound (replicates 1, 2, 3)", "setting": "[2]; Time 60", "result": "78.3119 µM and 86.3505 µM and 66.4309 µM"}, {"measurement": "NADPH oxidation of KnmB1 in the presence of compound, average value", "setting": "[2]; Time 60", "result": 77.0311, "unit": "µM"}]}
